Patent US20230321045A1 (priority 2022, published 2023)
Entries after “also recorded” stand apart in the source; their conditions may differ. Read-outs that look alike come from different tables or passages of the source.

What was measured:
[1] = test system: vaccinia virus; format: cell-based
[2] = test system: vaccinia virus; format: cell-based; remark: listed apart in the source
[3] = test system: BSC40 cells
[4] = test system: H1N1 (PR8); design: species or system female Balb/c mice; details: mouse, in vivo
[5] = test system: H1N1 (PR8); design: species or system female Balb/c mice; details: mouse, in vivo; remark: listed apart in the source
[6] = test system: H1N1 (PR8); design: species or system female Balb/c mice; details: mouse, in vivo; remark: listed apart in the source
[7] = test system: H1N1 (PR8); design: species or system female Balb/c mice; details: mouse, in vivo; remark: listed apart in the source

COc1cc(C(=O)c2cnc(-c3c[nH]c4ccccc34)[nH]2)cc(OC)c1OC.Cl [17ya hydrochloride salt]
release of extracellular enveloped virus (EEV) from infected cells [1]: dose dependent inhibition of virus released | virus associated with the infected cells (IMV) [1]: not a good correlation between the amount of drug and the amount of virus produced | IC50 ([1]; read-out: IC50, virus released into the media (EEV)): 24.3 nM | IC90 ([1]; read-out: IC90, virus released into the media (EEV)): 37.8 nM | vaccinia virus cell-to-cell spread [2]: clear dose-dependent response | IC50 ([2]; read-out: IC50, vaccinia virus cell-to-cell spread): 15.7 nM | IC90 ([2]; read-out: IC90, vaccinia virus cell-to-cell spread): 27 nM | toxicity to BSC40 cells [3]: showed a dose response for toxicity

C[C@@H]1C[C@H]2[C@@H]3CCC4=CC(=O)C=C[C@]4(C)[C@@]3(F)[C@@H](O)C[C@]2(C)[C@@]1(O)C(=O)CO [Dexamethasone]
BAL cell counts: Eosinophils [4]: 0.03 million/animal | BAL cell counts: Lymphocytes [4]: 0.15 million/animal | BAL cell counts: Mononuclear cells [4]: 0.02 million/animal | BAL cell counts: Neutrophils [4]: 0.34 million/animal | BAL cell counts: Totals [4]: 0.54 million/animal | BAL Cytokine level: IFN-γ [5]: 4.80 ± pg/ml | BAL Cytokine level: IL-6 [5]: 351.37 ± pg/ml | BAL Cytokine level: IP-10 [5]: 1102.42 pg/mL | BAL Cytokine level: KC [5]: 854.41 pg/mL | BAL Cytokine level: TNF-α [5]: 24.08 pg/mL | change in CXCL-10 in BAL fluid [5]: −8% | change in Interferon-γ (INF-γ) in BAL fluid [5]: −81% | change in Interleukin-6 (IL-6) in BAL fluid [5]: −52% | change in Keratinocyte-derived chemokine (KC) in BAL fluid [5]: +20% | change in TNF-α in BAL fluid [5]: −13%

CCOC(=O)C1=C[C@@H](OC(CC)CC)[C@H](NC(C)=O)[C@@H](N)C1 [Oseltamivir]
body weight gain / body weight loss vs H1N1 vehicle control group [6]: statistically significantly higher (p<0.01) body weight gain from Day 6 to Day 11; also recorded: attenuated the clinical signs and bodyweight loss | clinical signs associated with H1N1 infection [6]: attenuation of the clinical signs; also recorded: attenuated the clinical signs | BAL cell counts: Eosinophils [4]: 0.01 ± million/animal | BAL cell counts: Lymphocytes [4]: 0.09 ± million/animal | BAL cell counts: Mononuclear cells [4]: 0.01 ± million/animal | BAL cell counts: Neutrophils [4]: 0.15 ± million/animal | BAL cell counts: Totals [4]: 0.27 ± million/animal | BAL total and differential cells compared to the H1N1 control group [4]: statistically significantly (p<0.01) lower BAL total cells, neutrophils, eosinophils, lymphocytes, and mononuclear cells | BAL Cytokine level: IFN-γ [5]: 2.78 ± pg/ml | BAL Cytokine level: IL-6 [5]: 31.01 ± pg/ml | BAL Cytokine level: IP-10 [5]: 147.64 ± pg/ml | BAL Cytokine level: KC [5]: 88.29 ± pg/ml | BAL cytokine levels compared to the H1N1 control group [5]: statistically significantly (p<0.01) lower TNFα, IFNγ, IL-6, KC, and IP-10; also recorded: statistically significantly lower BAL total cells, neutrophils, eosinophils, lymphocytes, mononuclear cells BAL IFNγ, IL-6, IP-10, KC and TNFα | H1N1 induced higher PenH [7]: completely attenuated H1N1 induced higher PenH
